Reference: patent publication US8093244B2, “Heteroaryl urea derivatives useful for inhibiting CHK1” (ICOS Corporation, priority 2005, dated 2012)

Experiments:
Chk1 [1] = test: Western blot of Chk1 phosphorylation at serine 296 in HT29 cells (Example 10); assay type: cell-based, human; conditions: gemcitabine 20 μM for two h, 22 additional h
Protocol: Phosphorylation at this site is not inhibited by wortmannin, which inhibits Atm and Atr. Therefore, the phosphorylation of serine 296 is distinct from phosphorylation at serines 317 and 345. […] Therefore, this approach can be used to monitor Chk1 activity in tumors in response to Chk1 activators. Further, this approach can be used to measure inhibition of Chk1 activation by Chk1 inhibitors.
Thus, HT 29 cells are treated with 20 μM gemcitabine for two h. The gemcitabine is washed out of the cell growth media and cells are incubated for 22 additional h. Protein lysates are prepared and separated by an SDS-polyacrylamide gel electrophoresis. Proteins are transferred to polyvinylidene fluoride (PVDF) membranes and probed with antisera (Cell Signalling) specific for phosphorlyated serine 296 (Cell Signalling). […] Further, HT29 cells treated with selective Chk1 inhibitors for 15 min show no serine 296 phosphorylation.

Chk1 [2] = test: Western blot of Chk1 phosphorylation at serines 317 and 345 in HT29 cells (Example 9); assay type: cell-based, human; conditions: 20 μM for two h, 22 additional h
Excerpt: To determine whether an agent is a Chk1 activator, the phosphorylation state of Chk1 can be measured using phospho-specific antibodies to specific phosphorylation sites on Chk1. […] Liu et al., Genes Dev. 14:1448-1459, 2000; Zhao et al., Mol. Cell Biol. 21:4129-4139, 2001; Lopez-Girona et al., Proc. Natl. Acad. Sci. U.S.A. 98:11289-11294, 2001; Guo et al., Genes Dev. 14:2745-2756, 2000; Gatei et al., J. Biol. Chem. 278:14806-14811, 2003; Ng et al., J Biol Chem. 279 (10):8808-19, 2004; Wang et al., Natl Acad Sci USA. 100(26):15387-92, 2003; Stojic et al., Genes Dev. 18(11):1331-44, 2004. These serine sites are phosphorylated by upstream checkpoint kinases, Atm and Atr. Liu et al., Genes Dev. 14:1448-1459, 2000; Zhao et al. Mol. Cell Biol., 21:4129-4139, 2001).
The phosphorylation of these sites in response to a candidate Chk1 activator can be monitored by Western blot or immunohistochemistry of tumor cells. […] HT29 cells are treated with 20 μM gemcitabine for two h. The gemcitabine is washed out of the cell growth media and cells are incubated for 22 additional h. Protein lysates are prepared and separated by an SDS-polyacrylamide gel electrophoresis. Proteins are transferred to PVDF membranes and probed with antisera (Cell Signalling) specific for either phosphorylated serine 317 or 345 (Cell Signalling).

[3] = tested on: xenograft tumors of colon tumor cell lines; test: Xenograft animal tumor models (Example 11); assay type: in vivo, Balb/c (nu/nu) mice; conditions: 160 mg/kg intraperitoneal
Excerpt: To test the ability of the Chk1 inhibitors of the invention to enhance the killing of tumors by DNA damaging agents in mice, xenograft tumor models using colon tumor cell lines are established. 5-fluorouracil (5-FU) or gemcitabine can be used as DNA damaging agents. HT29 and Colo205 (human colon carcinoma) and H460 and Calu-6 (nonsmall cell carcinoma) cells can be used to propagate xenograft tumors in 6-8 week old female […] Balb/c (nu/nu) mice. Mice are maintained in a laminar airflow cabinet under pathogen-free conditions and fed sterile food and water ad libitum. Cell lines are grown to subconfluence in RPMI 1640 media supplemented with 10% FBS, 100 U/mL penicillin, 100 μg/mL streptomycin, and 1.5 mM L-glutamine in a 5% CO2 humidified environment. Single cell suspensions are prepared in CMF-PBS, and cell concentration adjusted to 1×10^8 cells/mL. Mice are inoculated subcutaneously (s.c.) on the right flank or right leg with a total of 1×10^7 cells (100 μL). Mice are randomized (5-15 mice/group) into four treatment groups and used when tumors reach a volume of […] (usually 7-11 days post-inoculation). Tumors are measured with vernier calipers and tumor volumes are estimated using the empirically derived formula: tumor volume (cm^3)=tumor length (cm)×tumor width (cm)×tumor depth (cm)/3.3. […] Tumor size is monitored every other day for the duration of the experiment.

Row | Structure (SMILES) | phosphorylation of Chk1 serine 296 (Chk1 [1]) | phosphorylation of Chk1 serines 317 and 345 (Chk1 [2]) | tumor growth [3]
1 | COC[C@H]1OC(=O)c2coc3c2[C@@]1(C)C1=C(C3=O)[C@@H]2CCC(=O)[C@@]2(C)C[C@H]1OC(C)=O [wortmannin] | not inhibited | – | –
2 | Nc1ccn([C@@H]2O[C@H](CO)[C@@H](O)C2(F)F)c(=O)n1 [gemcitabine, 2′,2′-difluoro-2′-deoxycytidine] | results in the phosphorylation of serine 296 | results in the phosphorylation of both serines 317 and 345 | A delay in tumor growth is observed
